From PubChem BioAssay (NCI)
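Compound exposure: 48 hours, 5 concentrations, 96-well plates. Definition used: TGI = concentration required for complete inhibition of growth.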

What was measured:
Experiment in all cases: NCI anticancer screen, dose series, 48 h
[1] = tested on: RPMI-8226 leukemia
[2] = tested on: SK-MEL-28 melanoma
[3] = tested on: HOP-92 NSCLC
[4] = tested on: M14 melanoma
[5] = tested on: HL-60(TB) leukemia
[6] = tested on: RXF-631 renal
[7] = tested on: OVCAR-4 ovarian
[8] = tested on: COLO 205 colon
[9] = tested on: KM12 colon
[10] = tested on: RXF 393 renal
[11] = tested on: KM20L2 colon
[12] = tested on: U251 CNS
[13] = tested on: EKVX NSCLC
[14] = tested on: SNB-19 CNS
[15] = tested on: CCRF-CEM leukemia
[16] = tested on: ACHN renal
[17] = tested on: DMS 114 small cell lung
[18] = tested on: NCI-H226 lung
[19] = tested on: SK-MEL-2 melanoma
[20] = tested on: MALME-3M melanoma
[21] = tested on: SW-620 colon
[22] = tested on: OVCAR-5 ovarian
[23] = tested on: HCC-2998 colon
[24] = tested on: UO-31 renal
[25] = tested on: NCI-H460 lung
[26] = tested on: TK-10 renal
[27] = tested on: K-562 leukemia
[28] = tested on: SF-295 CNS
[29] = tested on: NCI-H522 lung
[30] = tested on: HOP-18 NSCLC
[31] = tested on: DMS 273 small cell lung
[32] = tested on: UACC-257 melanoma
[33] = tested on: NCI-H23 lung
[34] = tested on: SNB-75 CNS
[35] = tested on: SF-539 CNS
[36] = tested on: A549 NSCLC
[37] = tested on: HOP-62 NSCLC
[38] = tested on: HCT-15 colon
[39] = tested on: DLD-1 colon
[40] = tested on: HT29 colon
[41] = tested on: A498 renal
[42] = tested on: UACC-62 melanoma
[43] = tested on: 786-0 renal
[44] = tested on: IGROV1 ovarian
[45] = tested on: XF 498 CNS
[46] = tested on: MOLT-4 leukemia
[47] = tested on: SK-OV-3 ovarian
[48] = tested on: M19-MEL melanoma
[49] = tested on: SF-268 CNS
[50] = tested on: LXFL 529 NSCLC
[51] = tested on: SR leukemia
[52] = tested on: MDA-N
[53] = tested on: CAKI-1 renal
[54] = tested on: OVCAR-3 ovarian
[55] = tested on: SN12C renal
[56] = tested on: MDA-MB-231 breast
[57] = tested on: MDA-MB-435
[58] = tested on: SNB-78 CNS
[59] = tested on: OVCAR-8 ovarian
[60] = tested on: T-47D breast
[61] = tested on: SK-MEL-5 melanoma
[62] = tested on: HS 578T breast
[63] = tested on: HCT-116 colon
[64] = tested on: DU-145 prostate
[65] = tested on: NCI/ADR-RES ovarian
[66] = tested on: MCF7 breast
[67] = tested on: BT-549 breast
[68] = tested on: LOX IMVI melanoma

c1ccc(COc2cccc3ccc[n+](Cc4ccccc4)c23)cc1
TGI [1]: 14.2 µM | TGI [2]: 25.4 µM | TGI [3]: 34.2 µM | TGI [4]: 60.2 µM | TGI [5]: 5.75 µM | TGI [6]: > 100 µM | TGI [7]: 45.7 µM | TGI [8]: 23.9 µM | TGI [9]: 15.7 µM | TGI [10]: 61.9 µM | TGI [11]: 93.8 µM | TGI [12]: > 100 µM | TGI [13]: > 100 µM | TGI [14]: > 100 µM | TGI [15]: > 100 µM | TGI [16]: 52.7 µM | TGI [17]: 14.6 µM | TGI [18]: 25.5 µM | TGI [19]: 20.3 µM | TGI [20]: 19.9 µM | TGI [21]: > 100 µM | TGI [22]: 9.98 µM | TGI [23]: 41.4 µM | TGI [24]: 75.2 µM | TGI [25]: 35.7 µM | TGI [26]: 94.6 µM | TGI [27]: > 100 µM | TGI [28]: 37.9 µM | TGI [29]: 8.02 µM | TGI [30]: 15.4 µM | TGI [31]: 17.7 µM | TGI [32]: 6.34 µM | TGI [33]: 23.9 µM | TGI [34]: 19.4 µM | TGI [35]: > 100 µM | TGI [36]: > 100 µM | TGI [37]: 50.8 µM | TGI [38]: > 100 µM | TGI [39]: > 100 µM | TGI [40]: > 100 µM | TGI [41]: 97.8 µM | TGI [42]: 20.1 µM | TGI [43]: 84.6 µM | TGI [44]: 25.7 µM | TGI [45]: 31.4 µM | TGI [46]: 51.8 µM | TGI [47]: 73.7 µM | TGI [48]: 16.3 µM | TGI [49]: > 100 µM | TGI [50]: 20.3 µM

CSc1nc(NC2OCC(OC(C)=O)C(OC(C)=O)C2OC(C)=O)c(N=CC=Nc2c(NC3OCC(OC(C)=O)C(OC(C)=O)C3OC(C)=O)nc(SC)[nH]c2=O)c(=O)[nH]1 (configuration not stated)
TGI [1]: > 100 µM | TGI [2]: > 100 µM | TGI [3]: > 100 µM | TGI [4]: > 100 µM | TGI [5]: > 100 µM | TGI [51]: > 100 µM | TGI [6]: > 100 µM | TGI [52]: > 100 µM | TGI [53]: > 100 µM | TGI [7]: > 100 µM | TGI [8]: > 100 µM | TGI [9]: > 100 µM | TGI [10]: 53 µM | TGI [54]: > 100 µM | TGI [55]: > 100 µM | TGI [11]: > 100 µM | TGI [12]: > 100 µM | TGI [13]: > 100 µM | TGI [14]: > 85.8 µM | TGI [56]: > 100 µM | TGI [57]: > 100 µM | TGI [15]: > 100 µM | TGI [16]: > 88.7 µM | TGI [58]: > 100 µM | TGI [17]: > 100 µM | TGI [18]: > 88.8 µM | TGI [19]: > 100 µM | TGI [20]: > 100 µM | TGI [21]: > 100 µM | TGI [22]: > 100 µM | TGI [23]: > 100 µM | TGI [59]: > 100 µM | TGI [60]: > 100 µM | TGI [24]: > 100 µM | TGI [25]: > 100 µM | TGI [26]: > 100 µM | TGI [27]: > 100 µM | TGI [28]: > 100 µM | TGI [29]: > 83.8 µM | TGI [61]: > 100 µM | TGI [30]: > 100 µM | TGI [31]: > 100 µM | TGI [32]: > 100 µM | TGI [33]: > 100 µM | TGI [62]: > 100 µM | TGI [34]: 57.4 µM | TGI [35]: > 86.4 µM | TGI [63]: > 100 µM | TGI [36]: > 100 µM | TGI [37]: > 92.6 µM | TGI [38]: > 100 µM | TGI [39]: > 100 µM | TGI [64]: > 100 µM | TGI [40]: > 100 µM | TGI [41]: > 100 µM | TGI [65]: > 100 µM | TGI [42]: > 100 µM | TGI [66]: > 100 µM | TGI [43]: > 100 µM | TGI [44]: > 100 µM | TGI [46]: > 100 µM | TGI [67]: > 100 µM | TGI [47]: 80.1 µM | TGI [48]: > 100 µM | TGI [68]: > 100 µM | TGI [49]: > 100 µM | TGI [50]: > 100 µM
